Drawing on ChEMBL document CHEMBL2073912, “Biochemical basis of polyvalency as a strategy for enhancing the efficacy of P-glycoprotein (ABCB1) modulators: stipiamide homodimers separated with defined-length spacers reverse drug efflux with greater efficacy” (Biochemistry, 2004), this text covers Activity for six molecules.

Chain of ATP-dependent translocase ABCB1 (P08183 whole entry): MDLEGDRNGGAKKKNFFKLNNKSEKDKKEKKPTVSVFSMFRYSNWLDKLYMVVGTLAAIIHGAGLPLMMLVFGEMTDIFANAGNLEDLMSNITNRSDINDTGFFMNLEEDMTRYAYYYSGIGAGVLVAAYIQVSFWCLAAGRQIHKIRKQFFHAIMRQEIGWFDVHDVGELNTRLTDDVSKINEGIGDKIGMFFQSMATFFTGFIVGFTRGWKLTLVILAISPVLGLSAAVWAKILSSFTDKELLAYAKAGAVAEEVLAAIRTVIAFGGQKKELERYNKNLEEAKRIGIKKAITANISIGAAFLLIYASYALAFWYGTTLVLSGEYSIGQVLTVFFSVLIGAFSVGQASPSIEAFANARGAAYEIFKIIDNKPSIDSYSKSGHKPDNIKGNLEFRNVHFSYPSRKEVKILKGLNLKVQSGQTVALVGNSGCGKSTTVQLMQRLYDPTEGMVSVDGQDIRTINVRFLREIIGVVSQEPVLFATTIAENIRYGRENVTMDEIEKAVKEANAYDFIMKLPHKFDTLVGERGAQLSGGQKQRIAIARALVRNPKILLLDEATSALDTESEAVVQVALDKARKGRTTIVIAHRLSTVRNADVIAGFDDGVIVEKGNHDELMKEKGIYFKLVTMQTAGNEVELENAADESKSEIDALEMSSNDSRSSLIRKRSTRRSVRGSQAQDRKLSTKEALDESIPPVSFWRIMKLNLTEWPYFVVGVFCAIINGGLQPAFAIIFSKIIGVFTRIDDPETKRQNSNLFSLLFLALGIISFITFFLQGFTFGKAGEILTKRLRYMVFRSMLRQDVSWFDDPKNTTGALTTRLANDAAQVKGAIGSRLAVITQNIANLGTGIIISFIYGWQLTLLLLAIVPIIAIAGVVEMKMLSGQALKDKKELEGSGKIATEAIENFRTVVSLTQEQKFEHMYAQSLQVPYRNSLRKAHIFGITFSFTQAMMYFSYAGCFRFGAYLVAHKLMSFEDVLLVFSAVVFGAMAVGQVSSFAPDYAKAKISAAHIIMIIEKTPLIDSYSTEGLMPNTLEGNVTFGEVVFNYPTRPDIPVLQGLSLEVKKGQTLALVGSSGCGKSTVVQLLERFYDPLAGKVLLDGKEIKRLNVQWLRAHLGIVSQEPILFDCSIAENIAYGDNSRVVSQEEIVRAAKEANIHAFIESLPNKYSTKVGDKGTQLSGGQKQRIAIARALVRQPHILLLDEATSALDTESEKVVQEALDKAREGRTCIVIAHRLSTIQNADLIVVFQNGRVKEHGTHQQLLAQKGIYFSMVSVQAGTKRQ

This data set concerns the target ATP-dependent translocase ABCB1 (Homo sapiens, UniProt P08183). Description: TP_TRANSPORTER: increase in bodipy-FL-prazosin intracellular accumulation in MDR1-expressing NIH-3T3 cells. It is filed as functional, cell-based. The note with it: mouse, nih3t3.
`C/C(=C\CCC#C/C=C/C(C)C(O)/C(C)=C/CCc1cccc2ccccc12)C(=O)NCCOCCOCCOCCOCCOCCO` (stereo unspecified) [STIPIAMIDE MONOMER]: the Activity entry was “is not an inhibitor [-]”.

For `C/C(=C\CCC#C/C=C/C(C)C(O)/C(C)=C/CCc1cccc2ccccc12)C(=O)NCCOCCOCCOCCOCCOCCOCCOCCOCNC(=O)/C(C)=C/CCC#C/C=C/C(C)C(O)/C(C)=C/CCc1ccc2ccccc2c1` (stereo unspecified), the Activity entry was “inhibitor [+]”.

For the molecule `C/C(=C\CCC#C/C=C/C(C)C(O)/C(C)=C/CCc1cccc2ccccc12)C(=O)NCCOCCOCCOCCOCCOCCOCCOCCOCCOCCOCCOCCOCNC(=O)/C(C)=C/CCC#C/C=C/C(C)C(O)/C(C)=C/CCc1ccc2ccccc2c1` (stereo unspecified), the Activity entry was “inhibitor [+]”.

On to `C/C(=C\CCC#C/C=C/C(C)C(O)/C(C)=C/CCc1cccc2ccccc12)C(=O)NCCOCCOCNC(=O)/C(C)=C/CCC#C/C=C/C(C)C(O)/C(C)=C/CCc1ccc2ccccc2c1` (stereo unspecified), for which the Activity entry was “is not an inhibitor [-]”.

For `C/C(=C\CCC#C/C=C/C(C)C(O)/C(C)=C/CCc1ccc2ccccc2c1)C(=O)NCCOCCOCCOCCOCCOCCNC(=O)/C(C)=C/CCC#C/C=C/C(C)C(O)/C(C)=C/CCc1cccc2ccccc12` (stereo unspecified), the Activity entry is “inhibitor [+]”.

As to `C/C(=C\CCC#C/C=C/C(C)C(O)/C(C)=C/CCc1ccc2ccccc2c1)C(=O)NCNC(=O)/C(C)=C/CCC#C/C=C/C(C)C(O)/C(C)=C/CCc1cccc2ccccc12` (stereo unspecified), the Activity result is “is not an inhibitor [-]”.
